{"source": "patent US20230190967A1", "about": "“Method and Composition for Evaluating Response to Neurodegenerative Disease Treatment Agent” (GENUV INC., priority 2020, published 2023)", "key": {"[1]": {"tested_on": "8-month-old 5XFAD mouse brain cortex", "assay": "Single cell RNA sequencing of brain cortex: number of single cells analyzed per cell type", "type": "in vivo", "details": "8-month-old 5XFAD mice cortex, trametinib 0.1 mg/kg/day", "experimental": "(§1) Age-matched wild-type (WT) mice were orally administered vehicle for 2.5 months. Blood was obtained from all the mice at the age of 8 months after completion of the treatment and collected in EDTA tubes, which were centrifuged to obtain plasma. Mice were sacrificed by the perfusion method, and the brain cortex was extracted and immediately frozen.\n(§2) Single-cell RNA sequencing analysis was performed on the 8-month-old 5XFAD mouse and wild type mouse brain cortex samples. The cortex was microdissected in HABG (Hibernate A buffer including B27 supplement and glutamine) media and digested in papain solution for 20 min at 37° C. (Brewer et al (2007). Isolation and culture of adult neurons and neurospheres. Nat Protoc 2, 1490-1498). Using a Pasteur pipette, the digested cortex was gently triturated. Cells were isolated by the density gradient method using OptiPrep (Sigma-Aldrich, D1556).\nThe cell suspension was diluted with Drop-seq buffer, and Drop-seq was performed using the Chromium™ Single Cell 3′ v2 Reagent Kit (Campbell et al. (2017). A molecular census of arcuate hypothalamus and median eminence cell types. Nat Neurosci 20, 484-496). Libraries were sequenced on the Illumina HiSeq X Ten, and Read 1 was 16 bp (10×™ Barcode and 10 bp UMI). […]"}, "[2]": {"tested_on": "8-month-old 5XFAD mouse brain cortex", "experimental": "as §1, §2\nThe cell suspension was diluted with Drop-seq buffer, and Drop-seq was performed using the Chromium™ Single Cell 3′ v2 Reagent Kit (Campbell et al. (2017). A molecular census of arcuate hypothalamus and median eminence cell types. Nat Neurosci 20, 484-496). Libraries were sequenced on the Illumina HiSeq X Ten, and Read 1 was 16 bp (10×™ Barcode and 10 bp UMI). Cells with either very low or too high mRNA content (to only include: 200<gene number <3,000) or a high fraction of mitochondrial encoded transcripts (>20%) were filtered out. Using 20,056 cells, raw sequence data were aligned to the mouse (mm10) genome, and analyses including PCA, t-SNE, and graph-based clustering were performed with the Cell Ranger Single-Cell software.\nIn addition to the microglial cells, the other brain cell types were also analyzed for the genes differentially expressed between the experimental groups."}, "[3]": {"tested_on": "Spp1 mRNA", "assay": "qRT-PCR of Spp1 mRNA expression in brain tissue of 5XFAD mice", "type": "in vivo, mouse", "details": "0.1 mg/kg/day", "excerpt": "as §1\n(§3) Blood was obtained from the 13-month-old mice after completion of the treatment and collected in EDTA tubes, which were centrifuged to obtain plasma. Mice were sacrificed, and the brain cortex was extracted, washed with PBS, and immediately frozen.\n(§4) In addition, qRT-PCR was performed to measure the mRNA expression level in the brain tissue of each animal. […] Reverse transcription was performed using M-MLV reverse transcriptase (Invitrogen, 28025013). qRT-PCR was performed using the SYBRTM Green PCR master mix (Thermo, 4367659) according to the manufacturer's instructions. Results were expressed relative to the housekeeping gene GAPDH (Glyceraldehyde-3-Phosphate Dehydrogenase)."}, "[4]": {"tested_on": "Osteopontin (OPN)", "assay": "ELISA of plasma osteopontin in 5XFAD mice", "type": "in vivo, mouse", "details": "for Decrease of plasma osteopontin (OPN) level vs. 5XFAD-vehicle group: 8-month-old 5XFAD", "excerpt": "as §1, §3\n(§5) ELISA was performed to detect changes in the level of biomarkers in the plasma of 5XFAD mice. The following ELISA kits were used for each of the biomarkers: • Neurofilament-light chain (NfL): Cloud-Clone, SEE038Mu • Cathepsin B (CTSB): Novus, NBP2-67254 • Osteopontin (OPN): LS bio, LS-F26046-1 • Synaptotagmin-1 (Syt1): LS bio, LS-F30963-1 • Apolipoprotein-E (ApoE): Novus, NBP2-66739\n(§6) NfL, CTSB and ApoE were detected by colorimetric methods. OPN and Syt1 were detected by chemiluminescent methods. ELISA was performed according to the ELISA kit manufacturer's instructions."}, "[5]": {"tested_on": "Synaptotagmin-1 (Syt1)", "assay": "ELISA of plasma synaptotagmin-1 in 5XFAD mice", "type": "in vivo, mouse", "details": "8-month-old 5XFAD", "experimental": "as §1, §5, §6"}, "[6]": {"tested_on": "Apolipoprotein-E (ApoE)", "assay": "ELISA of plasma apolipoprotein-E in 5XFAD mice", "type": "in vivo, mouse", "details": "8-month-old 5XFAD", "experimental": "as §1, §5, §6"}, "[7]": {"tested_on": "Cathepsin B (CTSB)", "excerpt": "as §1, §3, §5, §6"}, "[8]": {"tested_on": "Neurofilament-light chain (NfL)", "assay": "ELISA of plasma neurofilament light chain in 5XFAD mice", "type": "in vivo, mouse", "excerpt": "as §1, §3, §5, §6"}, "[9]": {"tested_on": "Map2, a dendrite marker", "assay": "Immunohistochemical analysis of Map2 (dendrite/neurite marker) in brain tissue of 5XFAD mice", "type": "in vivo, mouse", "details": "8-month-old 5XFAD mice, FIGS. 8 and 9", "excerpt": "as §1\nThe sections were counterstained with DAPI."}, "[10]": {"tested_on": "C57BL/6 mice whole brain", "assay": "Whole cell RNA sequencing of whole brain of C57BL/6 mice after 1, 2, 3, or 4 weeks of administration", "type": "in vivo, mouse", "details": "0.1 mg/kg/day", "experimental": "Mice were sacrificed after 1, 2, 3, or 4 weeks of administration. Whole brain was extracted.\nWhole cell RNA sequencing analysis was performed with the RNA isolated from the whole brain of the mice to observe the change of genes in the brain during the administration period.\nThe whole cell RNA sequencing was performed as follows. RNA was isolated from the whole brains of the mice, and cDNA libraries for RNA sequencing were prepared using the TruSeq Stranded mRNA Prep Kit (Illumina, San Diego, Calif.) according to the manufacturer's guidelines. The libraries were sequenced on the Illumina Nextseq500 platform, and the reads were mapped to the reference Mouse mm10 genome using Tophat v2.0.13. After read mapping, transcript assembly was performed using StringTie program. The expression profile for each sample was obtained, and RPKM (Read per Kilobase per million mapped reads) values were calculated based on the transcripts/genes. To compare the gene expression levels in each experimental group, DEG (Differentially Expressed Genes) were analyzed using DESeq2. As a result, 196 genes satisfying |fc|>=2, p value <0.05 in at least one comparison set were extracted. The extracted gene information was checked in KEGG database (http://www.kegg.jp/kegg/pathway.html) to identify which pathway the genes belong to. Genes showing at least a twofold increase in the expression level in the corresponding pathway were marked bold, and those showing at least a twofold decrease were marked italic on the right side of the heatmap (FIG. 10)."}, "[11]": {"tested_on": "H2-Ob mRNA", "assay": "qRT-PCR of H2-Ob mRNA expression in brain cortex of 5XFAD mice", "type": "in vivo, mouse", "details": "8-month-old 5XFAD mice brain cortex, 0.1 mg/kg/day trametinib, FIG. 11", "experimental": "as §1, §4"}, "[12]": {"details": "M (microglia), 8-month-old 5XFAD cortex, 0.1 mg/kg/day"}, "[13]": {"details": "microglia cluster, 5XFAD-Tra 0.1 group"}, "[14]": {"details": "8-month-old 5XFAD, trametinib 0.1 mg/kg/day, statistically significant"}, "[15]": {"details": "C57BL/6 mice whole brain, at least twofold"}}, "note": "“Also recorded” adds a separate entry of the source. Where two headings read alike, the source gives them in different places.", "data": [{"smiles": "CC(=O)Nc1cccc(-n2c(=O)n(C3CC3)c(=O)c3c(Nc4ccc(I)cc4F)n(C)c(=O)c(C)c32)c1", "note": "[trametinib, N-(3-{3-cyclopropyl-5-[(2-fluoro-4-iodophenyl)amino]-6,8-dimethyl-2,4,7-trioxo-3,4,6,7-tetrahydropyrido[4,3-d]pyrimidin-1(2H)-yl}phenyl)acetamide]", "values": [{"measurement": "Microglial population compared to the 5XFAD-vehicle group", "setting": "[1]", "result": "decrease"}, {"measurement": "Log2(5XFAD-Tra0.1/5XFAD-Veh) ApoE (Apolipoprotein E)", "setting": "[2]; Astro (Astrocyte), 8-month-old 5XFAD cortex, 0.1 mg/kg/day", "result": "−0.5177"}, {"measurement": "Log2(5XFAD-Tra0.1/5XFAD-Veh) CTSB (Cathepsin B)", "setting": "[2]; Endo (Endothelial), 8-month-old 5XFAD cortex, 0.1 mg/kg/day", "result": 0.8182}, {"measurement": "Log2(5XFAD-Tra0.1/5XFAD-Veh) CTSE (Cathepsin E)", "setting": "[2]; [12]", "result": "−0.543"}, {"measurement": "Log2(5XFAD-Tra0.1/5XFAD-Veh) Spp1 (Osteopontin)", "setting": "[2]; [12]", "result": "−0.646"}, {"measurement": "Decrease of Spp1 expression compared to the 5XFAD-vehicle group", "setting": "[2]; [13]", "result": "at least 1.5 fold"}, {"measurement": "Decrease of Wfdc17 expression compared to the 5XFAD-vehicle group", "setting": "[2]; [13]", "result": "at least 1.5 fold"}, {"measurement": "Expression of the Spp1 gene (in words)", "setting": "[2]; [13]", "result": "decreased"}, {"measurement": "Increase of Acta2 expression compared to the 5XFAD-vehicle group", "setting": "[2]; [13]", "result": "at least 1.5 fold"}, {"measurement": "Increase of Ptgds expression compared to the 5XFAD-vehicle group", "setting": "[2]; [13]", "result": "at least 1.5 fold"}, {"measurement": "Increase of Rpl9-ps6 expression compared to the 5XFAD-vehicle group", "setting": "[2]; [13]", "result": "at least 1.5 fold"}, {"measurement": "Increase of Rpl10-ps3 expression compared to the 5XFAD-vehicle group", "setting": "[2]; [13]", "result": "at least 1.5 fold"}, {"measurement": "Spp1 level (mRNA) compared with the 5XFAD-vehicle group", "setting": "[3]; 8-month-old 5XFAD mice cortex, FIG. 1A", "result": "decreasing trend"}, {"measurement": "Spp1 level (mRNA) compared with the 5XFAD-vehicle group", "setting": "[3]; 13-month-old 5XFAD mice brain, FIG. 1B", "result": "decreasing trend"}, {"measurement": "Decrease of plasma osteopontin (OPN) level vs. 5XFAD-vehicle group", "setting": "[4]; trametinib 0.05 mg/kg/day", "result": 40, "unit": "%"}, {"measurement": "Decrease of plasma osteopontin (OPN) level vs. 5XFAD-vehicle group", "setting": "[4]; trametinib 0.1 mg/kg/day", "result": 43.9, "unit": "%"}, {"measurement": "Decrease of plasma osteopontin (OPN) level vs. vehicle group", "setting": "[4]; 13-month-old 5XFAD, trametinib 0.1 mg/kg/day 1 month, statistically significant", "result": 61.5, "unit": "%"}, {"measurement": "Decrease of plasma synaptotagmin-1 (Syt1) level vs. 5XFAD-vehicle group", "setting": "[5]; trametinib 0.05 mg/kg/day", "result": 26.2, "unit": "%"}, {"measurement": "Decrease of plasma synaptotagmin-1 (Syt1) level vs. 5XFAD-vehicle group", "setting": "[5]; trametinib 0.1 mg/kg/day", "result": 41.0, "unit": "%"}, {"measurement": "Decrease of plasma apolipoprotein-E (APOE) level vs. 5XFAD-vehicle group", "setting": "[6]; trametinib 0.1 mg/kg/day", "result": 34.3, "unit": "%"}, {"measurement": "Decrease of plasma apolipoprotein-E (APOE) level vs. 5XFAD-vehicle group", "setting": "[6]; trametinib 0.2 mg/kg, statistically significant", "result": 58.9, "unit": "%"}, {"measurement": "Decrease of plasma cathepsin B level vs. 5XFAD-vehicle group", "setting": "[7]; 8-month-old 5XFAD, trametinib 0.05 mg/kg/day", "result": 62.4, "unit": "%"}, {"measurement": "Decrease of plasma cathepsin B level vs. 5XFAD-vehicle group", "setting": "[7]; [14]", "result": 99, "unit": "%"}, {"measurement": "Decrease of plasma cathepsin B level vs. 5XFAD-vehicle group", "setting": "[7]; 13-month-old 5XFAD, trametinib 0.1 mg/kg/day 1 month, FIG. 6", "result": 35, "unit": "%"}, {"measurement": "Decrease of plasma neurofilament light chain (NfL) level vs. 5XFAD-vehicle group", "setting": "[8]; [14]", "result": 47.4, "unit": "%"}, {"measurement": "Plasma NfL levels, vehicle vs. trametinib-administered groups", "setting": "[8]; 13-month-old 5XFAD, trametinib 0.1 mg/kg/day 1 month, FIG. 7B", "result": "did not show a significant difference"}, {"measurement": "Neurite marker (Map2) in the brain tissue", "setting": "[9]", "result": "increased"}, {"measurement": "Genes showing an increase in the expression level in weeks 1 and 2", "setting": "[10]; [15]", "result": "Oprm1, Glp1r, Grin2a, Grin2b, Glra3,; also recorded: Glra1, Cnr2, Grin3b, Gabrr2, Ksr2, Cdh1,; also recorded: Tead4, Ctnna3, PDE11a, Nt5cla"}, {"measurement": "Genes showing an increase in the expression level in weeks 3 and 4", "setting": "[10]; [15]", "result": "Plin4, H2-Ob, Hspa1l, HSPa1b, Hnmpa1,; also recorded: Nos2, Rab5c"}, {"measurement": "Genes showing a decrease in the expression level in weeks 1 and 2", "setting": "[10]; [15]", "result": "Pla2g4c, C1s2"}, {"measurement": "Genes showing a decrease in the expression level in weeks 3 and 4", "setting": "[10]; [15]", "result": "Efna4, Scd4, Cd36, Ppp3r2"}, {"measurement": "H2-Ob level (whole brain RNA sequencing)", "setting": "[10]; C57BL/6 mice, 3 and 4 weeks after the administration", "result": "remarkably increased"}, {"measurement": "H2-Ob mRNA expression level compared to the 5XFAD-vehicle group", "setting": "[11]", "result": "significantly increased"}]}]}
